Assay results: the supplement of paper PMC10307832

Key:
Assay in all cases: relative viability (nuclei count vs DMSO), 5 days (fraction); higher = more cells survive
Vemurafenib = compound: CCCS(=O)(=O)Nc1ccc(F)c(C(=O)c2c[nH]c3ncc(-c4ccc(Cl)cc4)cc23)c1F [Vemurafenib]
In short: (§1)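 Hoechst staining, done together with fixation and permeabilisation, marked nuclei for 4× imaging and MetaXpress counting. This followed 5 days without medium change after lung cancer cell lines, kept overnight at 37 °C in 1536-well plates, were pinned with five library-drug doses (not always all listed) spaced by √10 on vehicle-anchored plates. Viability is the ratio of treated-well to vehicle-well nuclei, expressed as a median across plates. Plates passed only at control CV below 25% with at least one doubling.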

OSI-027 = compound: COc1cccc2cc(-c3nc([C@H]4CC[C@H](C(=O)O)CC4)n4ncnc(N)c34)[nH]c12 [OSI-027]
In short: as §1

Alpelisib = compound: Cc1nc(NC(=O)N2CCC[C@H]2C(N)=O)sc1-c1ccnc(C(C)(C)C(F)(F)F)c1 [Alpelisib]
In short: as §1

Row | Cell Line | relative viability (Vemurafenib; 0.03162 µM) | relative viability (Vemurafenib; 0.1 µM) | relative viability (Vemurafenib; 0.3162 µM) | relative viability (Vemurafenib; 1 µM) | relative viability (OSI-027; 0.01 µM) | relative viability (OSI-027; 0.03162 µM) | relative viability (OSI-027; 0.1 µM) | relative viability (OSI-027; 0.3162 µM) | relative viability (OSI-027; 0.5 µM, anchor plate) | relative viability (OSI-027; 1 µM) | relative viability (Alpelisib; 0.04 µM) | relative viability (Alpelisib; 0.1265 µM) | relative viability (Alpelisib; 0.4 µM) | relative viability (Alpelisib; 1.265 µM) | relative viability (Alpelisib; 2 µM, anchor plate) | relative viability (Alpelisib; 4 µM)
1 | HCC-44 | 0.899 | 0.955 | 0.758 | 1.07 | 0.975 | 0.963 | 0.928 | 0.871 | 0.634 | 0.739 | 0.98 | 0.914 | 1.02 | 0.846 | 0.811 | 0.861
2 | NCI-H2170 | 0.92 | 0.674 | 0.936 | 0.964 | 0.941 | 0.881 | 0.959 | 0.797 | 0.716 | 0.654 | 0.946 | 0.868 | 1.07 | 0.769 | 0.825 | 0.621
3 | PC-3 [JPC-3] | 0.972 | – | 0.971 | 1.18 | 1.01 | 0.993 | 1.03 | 0.918 | 0.745 | 0.698 | 1.1 | 1.03 | 1.13 | 0.943 | 0.999 | 1.01
4 | ABC-1 | 0.808 | 0.886 | 0.711 | 0.945 | 0.874 | 1.03 | 0.825 | 0.585 | 0.499 | 0.547 | 1.13 | 0.77 | 0.886 | 0.662 | 1.05 | 0.608
5 | NCI-H1651 | 0.919 | 0.998 | 0.887 | 0.966 | 0.96 | 0.828 | 0.977 | 0.901 | 0.71 | 0.723 | 0.891 | 1.02 | 1.01 | 0.844 | 0.973 | 0.841
6 | NCI-H1563 | 0.989 | 0.905 | 0.967 | 0.988 | 0.979 | 0.955 | 0.953 | 0.854 | 0.769 | 0.75 | 0.942 | 0.971 | 0.948 | 0.768 | 0.966 | 0.84
7 | NCI-H460 | 0.983 | 1 | 0.87 | 0.975 | 1.03 | 0.973 | 1.01 | 0.917 | 0.701 | 0.704 | 0.989 | 1.02 | 1.05 | 0.949 | 0.536 | 0.757
8 | NCI-H2228 | 1.04 | 0.948 | 1.05 | 0.999 | 0.975 | 0.88 | 0.957 | 0.941 | 0.625 | 0.619 | 0.947 | 0.881 | 1.04 | 0.686 | 0.742 | 0.495
9 | LOU-NH91 | 0.954 | 0.724 | – | 1.07 | 0.903 | 0.967 | 0.786 | 0.776 | 0.72 | 0.591 | 0.961 | 0.806 | 0.859 | 0.753 | 0.732 | 0.604
10 | RERF-LC-KJ | 0.957 | 0.984 | 0.942 | 1.03 | 0.942 | 1.01 | 0.933 | 0.735 | 0.597 | 0.464 | 0.94 | 0.914 | 1.01 | 0.824 | 0.844 | 0.87
11 | EKVX | 0.935 | – | 1.03 | 0.988 | 0.984 | 0.914 | 0.93 | 0.889 | 0.693 | 0.582 | 0.927 | 0.921 | 1.12 | 0.821 | 0.893 | 0.614
12 | NCI-H441 | 0.899 | 0.963 | 0.787 | 0.931 | 1.19 | 1.05 | 0.984 | 0.963 | 0.636 | 0.474 | 1.1 | 0.95 | 1.01 | 0.605 | 0.766 | 0.662
13 | NCI-H1395 | 0.755 | 0.951 | – | 0.949 | 0.914 | 0.898 | 0.814 | 0.795 | 0.69 | 0.7 | 0.97 | 0.758 | 1 | 0.73 | 1.14 | 0.785
14 | CAL-12T | 0.961 | 0.892 | 1.01 | 0.935 | 0.99 | 0.988 | 0.944 | 0.857 | 0.702 | 0.528 | 0.999 | 0.989 | 1.09 | 0.963 | 1.14 | 0.955
15 | 201T | 0.954 | 0.951 | 0.971 | 0.968 | 0.98 | 0.999 | 0.972 | 0.968 | 0.757 | 0.733 | 0.985 | 0.974 | 0.994 | 0.873 | 1.01 | 0.816
16 | SK-LU-1 | 0.95 | 0.958 | 0.669 | 0.978 | 1.08 | 0.974 | 0.916 | 0.608 | 0.328 | 0.425 | 1.07 | 0.977 | 1.03 | 0.855 | 0.922 | 0.812
17 | LC-2-ad | 0.923 | 0.892 | 0.738 | 0.956 | 1.07 | 1.01 | 0.946 | 1.02 | 0.875 | 0.779 | 0.966 | 0.905 | 1.09 | 0.685 | 0.868 | 0.672
18 | NCI-H1793 | 0.836 | – | 0.775 | 0.867 | 0.902 | 0.976 | 0.781 | 0.579 | 0.284 | 0.295 | 0.851 | 0.89 | 0.919 | 0.731 | 0.792 | 0.626
